Measured values published in patent publication US20220354852A1, “TARGETING WNT SIGNALING FOR IMPROVED GLIOMA IMMUNOTHERAPY” (CITY OF HOPE, priority 2021, published 2022).
“Also recorded” adds a separate entry of the source.

Key:
[1] = system: PBT147 and PBT030 metabolic pathways; test: NanoString nCounter human metabolic panel of PBT147 and PBT030 cells; format: cell-based
Experimental: FIG. 8. NanoString analysis of human metabolic pathways after treatment with ICG-001. The profiling panel consists of 770 genes targeting six fundamental themes: neurotransmission, neuron-glia interactions, neuroplasticity, cell structure integrity, neuroinflammation, and metabolism. Each assay also includes six positive and eight negative RNA assay controls, plus ten mRNA housekeeping controls. RNA was hybridized with the Codeset from the gene panel at 65° C. for 16 h. The post-hybridization probe-target mixture were quantified using the nCounter Digital Analyzer, and all data analysis was performed on nSolver (NanoString Technologies) metabolic panel. All raw data was normalized with internal positive and negative controls to eliminate variability unrelated to the samples, then normalized to the selected housekeeping genes using Geometric Means methods.
FIG. 17. (A-F) NanoString analysis of human metabolic pathways after treatment with ICG-001. The profiling panel consisted of 770 genes targeting six fundamental themes: neurotransmission, neuron-glia interactions, neuroplasticity, cell structure integrity, neuroinflammation, and metabolism. Each assay also included six positive and eight negative RNA assay controls and ten mRNA housekeeping controls. RNA was hybridized with the Codeset from the gene panel at 65° C. for 16 h. The post-hybridization probe-target mixture was quantified using the nCounter Digital Analyzer and all data analysis was performed using the nSolver metabolic panel (NanoString Technologies). All raw data was normalized with internal positive and negative controls to eliminate variability unrelated to the samples and then normalized to the selected housekeeping genes using Geometric Means methods. PBT147 and PBT030 cells were treated with ICG-001 at […] for 24 h (data not shown) or 72 h. Total RNA was collected for NanoString analysis from triplicate samples.
PBT147 and PBT030 PBT cells were treated with ICG-001 (0, 5, or 10 μM) for 24-72 h. RNA expression was then analyzed using the NanoString nCounter platform (NanoString Technologies) by digitally detecting and counting in a single reaction without amplification using the NanoString human metabolic panel (City of Hope Molecular Pathology Core) (Geiss, Bumgarner et al. 2008). The data indicates change in a several metabolic markers and antigen presentation increased by PBT cells lines after treatment with ICG-001 at both time points. […] An increased p53 pathway and mitochondrial respiration was also observed at both time points and both cell lines.
ICG-001 Affects PBT tumor metabolism. The N-termini of the Kat3 coactivators, i.e. CBP and p300, provide a highly evolutionarily conserved hub to integrate multiple signaling cascades to coordinate cellular metabolism with the regulation of cellular status and function and specifically that p300/β-Catenin mediated transcription is required to enhance mitochondrial OXPHOS during the initiation of cellular differentiation (Hu et al. 2021, Thomas & Kahn 2016). Therefore, patient-derived GBM cell lines PBT147 and PBT030 lines were treated with ICG-001 (0, 5, or 10 μM) for 24 h or 72 h (FIG. 17 shown differences in both cells lines at 72 h). RNA isolated from the treated PBT cells was analyzed using the NanoString nCounter metabolic panel (NanoString Technologies). This approach digitally detects and counts gene transcripts in a single reaction without amplification (analysis done by City of Hope Molecular Pathology Core) (Geiss et al. 2008).

[2] = system: subcutaneous K-luc tumors; test: IHC of immune cells in syngeneic subcutaneous K-luc glioma tumors; format: in vivo, mice (C57BL/6); details: 50 mg/kg/day by subcutaneous Alzet minipumps
Experimental: FIG. 22. IHC analysis of immune cells in syngeneic models of subcutaneous glioma (K-Luc). (A-D) Mice bearing subcutaneous K-luc glioma tumors were treated with ICG-001 (50 mg/kg/day) for 7, 14, or 21 days. At the end of treatment, tumor was excised and IHC stained for CD3 cells to evaluate recruitment and patterns of CD3 distribution (red). (E) Quantification of tumor coverage using ImageJ for mouse CD3, CD4, CD8, and CD31 positive cells on days 0-21. Scale bars are S.D. of duplicate sections (n=4).
Animal studies. Syngeneic mice (C57BL/6) of 8-12 weeks of age were implanted with subcutaneous K-Luc tumors (n=8). 7 days after, when tumors became palpable and after confirmation of the tumor presence with BLU imaging, mice were implanted with Alzet minipumps with ICG001 (50 mg/kg/day). Pumps were continuously providing a daily dose of ICG-001. […]
IHC was performed in COH pathology core. Tissues were scanned and quantification of CD4, CD8 and CD31 expression was done using ImageJ software.
Image analysis. Images were processed and analyzed in the ImageJ (Schneider et al. 2012, also see Schneider, C. A., Rasband, W. S., Image J, U. S. National Institutes of Health, Bethesda, Md., USA, https://imagej.nih.gov/ij/, 1997-2018). […] A watershed filter was then applied to this processed mask and the ‘Analyze Particles’ tool with a 4 pixel minimum size was employed to quantify the cells identified. […]

[3] = ICG-001 0, 5, or 10 μM, 24 h or 72 h
[4] = ICG-001 0, 5, or 10 μM, both time points

O=C1[C@H](Cc2ccc(O)cc2)N2C(=O)CCN(C(=O)NCc3ccccc3)[C@H]2CN1Cc1cccc2ccccc12 [ICG-001]
cell cycle-related genes [1, 3]: Downregulation; also recorded: cell cycle decrease
glutamine metabolism, ROS, mTOR, and p53 signaling [1, 3]: Upregulation
glycolysis [1, 3]: decrease
mitochondrial respiration [1, 3]: increased
antigen presentation [1, 4]: increased
immunosuppressive tryptophan/kynurenine metabolism [1, 4]: concomitant decrease
fatty acid oxidation ([1]; all treated cell lines, all timepoints): decreased in all treated cell lines at all timepoints; also recorded: decreased in all treated cells and all timepoints
CD3+, CD8+, and CD4+ cells infiltrating the tumor ([2]; by day 14): increase in mouse host immune cells
CD31 expression in tumor ([2]; days 7, 14, 21): time-dependent increase
